Data taken from paper PMC7140522, “The Pyrazolo[3,4-d]pyrimidine Derivative, SCO-201, Reverses Multidrug Resistance Mediated by ABCG2/BCRP” (Cells, 2020).
Read-outs that look alike come from different tables or passages of the source.

Tests used:
HT29SN-38-RES cells = experiment: MDR reversal analysis with MTT assay, HT29SN-38-RES; format: cell-based, human; settings: 72 hours, oxaliplatin is not a substrate for BCRP
Method: Control conditions consisted of full growth medium. All treatments were performed in triplicate.

CYP1A2 = experiment: CYP induction in human hepatocytes, CYP1A2 mRNA; format: in vitro ADME; settings: plated human hepatocytes
CYP2B6 = experiment: CYP induction in human hepatocytes, CYP2B6 enzyme activity; format: in vitro ADME
CYP3A [1] = experiment: CYP induction in human hepatocytes, CYP3A enzyme activity; format: in vitro ADME
Method: The following procedure was carried out to test whether SCO-201 induces CYP1A, CYP2B6, and CYP3A activities in human hepatocytes. The procedure was designed in accordance with the FDA Guidance for Industry on Drug Interaction Studies (2006). Male and female human hepatocytes were thawed and plated into collagen-coated 96-well plates in serum-containing medium (plating medium) at a density of 0.7 × 10^6 viable cells/mL. The hepatocytes were cultured in a humidified incubator at 37 °C and 5% CO2. At 4 h post plating, human hepatocytes were washed once with fresh plating medium, followed by overnight incubation. At 24 h after plating, the plating medium was removed, and the hepatocytes were overlaid with extracellular matrix (ECM) (Sigma) or Matrigel (BD) in the serum-free medium (incubation medium), and then incubated for another 24 h. Incubation medium with 0.1% DMSO was used as the negative control. After the 2-day recovery period, the hepatocytes were treated with SCO-201 or a known inducer (Table S3) in the incubation medium on day 3 and day 4. The known inducer was tested as the positive control. On day 5, the medium was removed, and the cells were incubated with the respective CYP substrate in Krebs–Henseleit buffer (pH 7.4) containing 3 mM salicylamide for 30 min. The reaction was terminated by transferring the incubation mixture to an equal volume of acetonitrile/methanol mixture (1/1, v/v). Samples were mixed and centrifuged. Supernatants are used for HPLC-MS/MS analysis of the corresponding metabolite. Peak areas corresponding to the metabolite were recorded. The assay was rendered valid if enzyme activity with the positive control was at least twofold greater than negative control.
Cells 2020, 9, x FOR PEER REVIEW 9 of 9
Substrate (conc.) Metabolite Assay
Ethoxyresorufin (2 µM) Resorufin CYP1A
Bupropion (200 µM) Hydrozyl-bupropion CYP2B6
Midazolam (10 µM) 1-hydroxymidazolam CYP3A
139 Table S3: In vitro DMPK analysis: CYP induction.
140 were applied as inducers of the investigated CYPs.
144 References for supplementary materials
146 1. […]

[2] = design: method as in PMID 26260222; settings: mice; cited from earlier work
CYP3A [3] = target: CYP3A (Homo sapiens, UniProt P08684); experiment: in vitro; settings: both, pooled human liver microsomes, pH 7.4, probe testosterone
Sequence of CYP3A (Homo sapiens, UniProt P08684) (P08684 2-503): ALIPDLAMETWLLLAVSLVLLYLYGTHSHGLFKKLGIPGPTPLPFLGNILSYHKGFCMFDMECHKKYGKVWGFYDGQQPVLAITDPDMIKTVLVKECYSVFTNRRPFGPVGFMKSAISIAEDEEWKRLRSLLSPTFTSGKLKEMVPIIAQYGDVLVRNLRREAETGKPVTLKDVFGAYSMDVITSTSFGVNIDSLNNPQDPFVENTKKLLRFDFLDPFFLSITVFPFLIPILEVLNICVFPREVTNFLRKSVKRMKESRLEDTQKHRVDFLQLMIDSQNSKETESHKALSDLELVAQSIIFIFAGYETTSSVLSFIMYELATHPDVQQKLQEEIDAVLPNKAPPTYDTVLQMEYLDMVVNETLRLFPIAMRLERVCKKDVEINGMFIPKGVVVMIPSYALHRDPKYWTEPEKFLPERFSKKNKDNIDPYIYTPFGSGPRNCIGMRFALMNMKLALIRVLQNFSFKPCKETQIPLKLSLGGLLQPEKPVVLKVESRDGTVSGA

CYP2C8 = CYP2C8 (Homo sapiens, UniProt P10632); experiment: biochemical
Sequence of CYP2C8 (P10632 whole entry): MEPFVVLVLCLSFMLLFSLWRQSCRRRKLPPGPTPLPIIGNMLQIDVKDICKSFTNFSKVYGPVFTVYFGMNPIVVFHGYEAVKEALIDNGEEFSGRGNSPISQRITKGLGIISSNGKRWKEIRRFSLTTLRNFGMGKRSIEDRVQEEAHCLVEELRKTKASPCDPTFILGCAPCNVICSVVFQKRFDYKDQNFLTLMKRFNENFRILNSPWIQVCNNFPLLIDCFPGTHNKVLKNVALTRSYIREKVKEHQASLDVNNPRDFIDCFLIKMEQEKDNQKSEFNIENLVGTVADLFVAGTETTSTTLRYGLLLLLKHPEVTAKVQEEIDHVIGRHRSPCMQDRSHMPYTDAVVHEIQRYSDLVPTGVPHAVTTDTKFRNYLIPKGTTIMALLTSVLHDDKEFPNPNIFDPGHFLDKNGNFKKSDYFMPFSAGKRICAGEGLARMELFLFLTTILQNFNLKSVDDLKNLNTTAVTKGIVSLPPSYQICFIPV

Compound: Nc1nc(-c2ccccc2)nc2[nH]nc(Nc3ccc(C(F)(F)F)cc3)c12 [SCO-201]
- combinatorial effect with oxaliplatin on cell viability (HT29SN-38-RES cells): no added effects
- fold induction at 2 days (CYP1A2; Donor 1, read-out: Mean Fold Induction of mRNA at 1× 10^−4 M): 0.24
- fold induction at 2 days (CYP1A2; Donor 2, read-out: Mean Fold Induction of mRNA at 1× 10^−4 M): 0.39
- fold induction at 2 days (CYP1A2; Donor 3, read-out: Mean Fold Induction of mRNA at 1× 10^−4 M): 0.26
- Mean Fold Enzyme Activity Induction at 1 × 10^−4 M (CYP2B6; Donor 1): 0.8
- Mean Fold Enzyme Activity Induction at 1 × 10^−4 M (CYP2B6; Donor 2): 0.9
- Mean Fold Enzyme Activity Induction at 1 × 10^−4 M (CYP2B6; Donor 3): 0.6
- Mean Fold Enzyme Activity Induction at 1 × 10^−4 M (CYP3A [1]; Donor 1): 1.3
- Mean Fold Enzyme Activity Induction at 1 × 10^−4 M (CYP3A [1]; Donor 2): 2.0
- Mean Fold Enzyme Activity Induction at 1 × 10^−4 M (CYP3A [1]; Donor 3): 0.4
- oral activity [2]: orally active
- IC50 at 10 min (CYP3A [3]): > 100 µM
- IC50 (CYP2C8): > 100 µM
